One test concerns the target T1, hP2X3 (Homo sapiens, UniProt P56373).
T1 construct: expressed in transfected cells
T1 sequence (P56373 1-397): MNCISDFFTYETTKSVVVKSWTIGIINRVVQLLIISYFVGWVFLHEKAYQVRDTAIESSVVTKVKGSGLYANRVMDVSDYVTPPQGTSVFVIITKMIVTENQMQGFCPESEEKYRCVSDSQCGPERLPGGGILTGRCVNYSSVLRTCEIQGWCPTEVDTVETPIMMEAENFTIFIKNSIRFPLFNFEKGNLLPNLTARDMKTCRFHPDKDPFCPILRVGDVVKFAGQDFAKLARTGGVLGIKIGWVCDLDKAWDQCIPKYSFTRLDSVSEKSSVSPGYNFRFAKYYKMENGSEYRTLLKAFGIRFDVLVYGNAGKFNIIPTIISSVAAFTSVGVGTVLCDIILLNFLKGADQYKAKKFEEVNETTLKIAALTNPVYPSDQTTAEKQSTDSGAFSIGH
Put plainly: Calcium uptake assay (Ca influx), P2X antagonist assay, P2X3 homomer. The format is cell-based. Particulars: inhibition of agonist-induced calcium influx. The text has this:
(§1) Human P2X3 (Accession no. NM_002559), P2X2 (Accession no. NM_170682) and Rat P2X3 (Accession no. NM_031075) and P2X2 (Accession no. NM_053656) are cloned into a mammalian expression vector (e.g., pcDNAS/TO or pcDNA3 Invitrogen). The human P2X2/3 chimera clone is created as described by Neelands et al, and then cloned into an expression vector as above. Receptors are expressed in cells (e.g., HEK293 or 1321N1 (obtained from the ECACC)) via transient transfection using standard lipid mediated transfection, or by creation of stable transfectants for each receptor. For expression of the P2X2/3 heteromeric receptor, the P2X3 expression vector is stably transfected into a cell line already stably expressing P2X2. P2X2/3 heteromer function is isolated using pharmacological methods. Cell lines are maintained in DMEM+5% Glutamax, the appropriate level of selective antibiotic, and 10% heat inactivated FBS.
(§2) Functional activity of compounds at the P2X receptor is determined by measuring their ability to inhibit agonist-induced calcium influx. Compounds are tested for antagonist activity against the P2X2/3 chimera, the P2X3 homomer, or the P2X2/3 heteromer. At the start of each screening day, the agonist EC50 is determined. Compound % inhibition or IC50s are subsequently determined using a predetermined agonist concentration (EC50-90 depending on cell line) as a stimulus. The agonists used are αβMeATP, ATP, or other ATP analogs. Compounds may be tested at concentrations ranging from 1 pM to 10 μM.
(§3) To test for antagonist activity, cells expressing the appropriate receptor are seeded onto 96 or 384 well plates 18-24 hours prior to assay. On the day of the assay, cells are loaded with calcium-sensitive fluorescent dye (e.g., Fluo-4 no wash reagent-Invitrogen cat#F36206, or the BD™ PBX Calcium Assay Kit-BD cat #640175) in Hank's Buffered Salt Solution (HBSS) with up to 10 mM supplemental CaCl2. Plates are incubated at 37° C. and then equilibrated at room temperature. Antagonism of agonist-induced calcium influx is measured using a fluorescent imaging plate reader (e.g. FLIPR^TETRA, Molecular Devices, Sunnyvale, Calif.). The assay comprises two stages: a pre-treatment phase followed by a treatment phase. Compounds may be tested as follows: For the pre-treatment phase, 50 μL of 3× concentration of test compound in HBSS is added to cells containing 100 μL of dye loading media to achieve a final concentration of 1× test compound. For the treatment phase, at a set interval after pre-treatment (1-30 minutes), 50 μL of 1× test compound plus 4× agonist solution is added, resulting in a final concentration of 1× compound and 1× agonist. Fluorescence is measured at 0.1-3 second intervals—with an excitation wavelength of 494 nm and an emission wavelength of 515 nm. Responses are measured as (peak fluorescence after agonist addition) minus (baseline fluorescence prior to treatment). Percent inhibition is calculated as follows:
(§4) [formula] IC50 values are determined by analyzing dose response data in a 4 parameter logistic fit using GraphPad Prizm.
(§5) The following compounds have been or can be prepared according to the synthetic methods described herein. A calcium uptake assay was performed as described above and the activity of each compound is expressed as follows: […]

In a further test the target is T2, hP2X2/3H (Homo sapiens, UniProt P56373+Q9UBL9).
T2 construct: expressed in transfected cells
T2 sequence (P56373 1-397): T1 sequence (P56373 1-397)
T2 sequence (Q9UBL9 1-471): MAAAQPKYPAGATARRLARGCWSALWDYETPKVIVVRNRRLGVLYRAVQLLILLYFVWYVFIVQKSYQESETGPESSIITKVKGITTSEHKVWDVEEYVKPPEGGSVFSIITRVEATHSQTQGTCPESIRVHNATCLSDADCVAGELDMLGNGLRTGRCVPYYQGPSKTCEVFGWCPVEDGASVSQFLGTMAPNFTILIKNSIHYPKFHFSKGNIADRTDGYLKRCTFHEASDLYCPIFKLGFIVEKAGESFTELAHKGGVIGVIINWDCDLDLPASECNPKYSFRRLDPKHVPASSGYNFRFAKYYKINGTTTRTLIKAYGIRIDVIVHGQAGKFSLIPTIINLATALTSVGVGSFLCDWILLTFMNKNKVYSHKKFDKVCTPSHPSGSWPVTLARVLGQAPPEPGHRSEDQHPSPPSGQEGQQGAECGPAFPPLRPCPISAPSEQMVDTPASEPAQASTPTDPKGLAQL
Put plainly: Calcium uptake assay (Ca influx), P2X antagonist assay, P2X2/3 heteromer. Format: cell-based. The conditions noted are these: inhibition of agonist-induced calcium influx.
Excerpt: as §1, §2, §3, §4, §5

Broadly, the IC50 is the concentration at which inhibition is half-maximal.

In the case of `Cc1ccc(-c2cc(C(=O)N[C@@H](C)CO)cc(-c3cccc(F)c3F)c2)nc1` [Compound 70, 2′,3′-Difluoro-5-(5-methyl-pyridin-2-yl)-biphenyl-3-carboxylic acid ((S)-2-hydroxy-1-methyl-ethyl)-amide], on hP2X3, the 50% inhibitory concentration (IC50) is 43.2 nM.
As to `COc1ccccc1-c1cc(C(=O)NCc2ccc(C)nc2)cc(-c2ccc(C)cc2)c1` [Compound 4, 2″-Methoxy-4-methyl-[1,1′;3′,1″]terphenyl-5′-carboxylic acid (6-methyl-pyridin-3-ylmethyl)-amide], the IC50 was 1060 nM at hP2X2/3H and 306 nM on hP2X3.
The corresponding values for `Cc1ncc([C@@H](C)NC(=O)c2cc(-c3ccccn3)cc(-c3ccccc3CO)c2)cn1` [Compound 44, 2′-Hydroxymethyl-5-pyridin-2-yl-biphenyl-3-carboxylic acid [(R)-1-(2-methyl-pyrimidin-5-yl)-ethyl]-amide] are 293 nM and 91.6 nM.
Turning to `Cc1ccc(-c2cc(C(=O)N[C@H](C)c3cnc(C)nc3)cc(-c3ccccc3C#N)c2)nc1` [Compound 31, 2′-Cyano-5-(5-methyl-pyridin-2-yl)-biphenyl-3-carboxylic acid [(R)-1-(2-methyl-pyrimidin-5-yl)-ethyl]-amide], the IC50 is 17.6 nM on hP2X2/3H and 14.2 nM on hP2X3.
For `Cc1ccc(-c2cc(C(=O)NCc3cnc(C)nc3)cc(-c3ncccn3)c2)cc1` [Compound 2, 4′-Methyl-5-pyrimidin-2-yl-biphenyl-3-carboxylic acid (2-methyl-pyrimidin-5-ylmethyl)-amide], the IC50 worked out at 407 nM on hP2X2/3H and 78.5 nM at hP2X3.
In the case of `Cc1ccc(-c2cc(C(=O)NCc3ccc(C)nc3)cc(N3CCCCC3=O)c2)cc1` [Compound 37, 4′-Methyl-N-((6-methylpyridin-3-yl)methyl)-5-(2-oxopiperidin-1-yl)biphenyl-3-carboxamide], the half-inhibitory concentration (IC50) on hP2X2/3H was determined as 122 nM; at hP2X3, 48.6 nM.
In the case of `Cc1ccc(-c2cc(C(=O)N[C@H](C)c3ccc(C)nc3)cc(N3CCCCC3=O)c2)cc1` [Compound 40, (R)-4′-Methyl-N-(1-(6-methylpyridin-3-yl)ethyl)-5-(2-oxopiperidin-1-yl)biphenyl-3-carboxamide], the concentration for half-maximal inhibition (IC50) on hP2X2/3H worked out at 52.7 nM; on hP2X3, 26.3 nM.
`Cc1ccc(-c2cc(C(=O)N[C@@H](C)CO)cc(-c3cccc(F)c3F)c2)c(C#N)c1` [Compound 85, 2-Cyano-2″,3″-difluoro-4-methyl-[1,1′;3′,1″]terphenyl-5′-carboxylic acid ((S)-2-hydroxy-1-methyl-ethyl)-amide]: the concentration for half-maximal inhibition (IC50) at hP2X2/3H came out at 1360 nM; on hP2X3 it was 31.9 nM.
The like results for `Cc1ccc(-c2cc(C(=O)N[C@H](C)CN3CCOCC3)cc(-c3cccc(F)c3F)c2)nc1` [Compound 77, (R)-2′,3′-difluoro-5-(5-methylpyridin-2-yl)-N-(1-morpholinopropan-2-yl)biphenyl-3-carboxamide] were, in that order, 373 nM and 99.5 nM.
The like results for `Cc1ccc(-c2cc(C(=O)NCc3ccc(C)nc3)cc(N3CCN(C)CC3=O)c2)c(C#N)c1` [Compound 67, 2′-Cyano-4′-methyl-5-(4-methyl-2-oxo-piperazin-1-yl)-biphenyl-3-carboxylic acid (6-methyl-pyridin-3-ylmethyl)-amide] were, in that order, 667 nM and 102 nM.
As to `Cc1ccc(-c2cc(C(=O)N[C@H](C)CN3CCOCC3)cc(-c3cc(C(F)(F)F)ccc3C#N)c2)nc1` [Compound 80, (R)-2′-cyano-5-(5-methylpyridin-2-yl)-N-(1-morpholinopropan-2-yl)-5′-(trifluoromethyl)biphenyl-3-carboxamide], the IC50 was determined as 218 nM on hP2X2/3H and 351 nM on hP2X3.
Take `Cc1ccc(-c2cc(C(=O)NCc3ccc(C)nc3)cc(-c3ccccc3CO)c2)nc1` [Compound 13, 2′-Hydroxymethyl-5-(5-methyl-pyridin-2-yl)-biphenyl-3-carboxylic acid (6-methyl-pyridin-3-ylmethyl)-amide]: the IC50 stood at 12.9 nM at hP2X2/3H and 9 nM at hP2X3.
For `Cc1ccc(-c2cc(C(=O)NCc3ccc(C)nc3)cc(N3CCN(C)CC3=O)c2)cc1` [Compound 68, 4′-Methyl-5-(4-methyl-2-oxo-piperazin-1-yl)-biphenyl-3-carboxylic acid (6-methyl-pyridin-3-ylmethyl)-amide], the IC50 at hP2X2/3H is 1390 nM; at hP2X3, 371 nM.
As for `Cc1ccc(-c2cc(C(=O)N[C@H](C)c3cnc(C)nc3)cc(-c3cnccc3C#N)c2)nc1` [Compound 55, 3-(4-Cyano-pyridin-3-yl)-5-(5-methyl-pyridin-2-yl)-N-[(R)-1-(2-methyl-pyrimidin-5-yl)-ethyl]-benzamide], the IC50 on hP2X2/3H stood at 27.5 nM; on hP2X3, 12.7 nM.
Consider `Cc1ccc(-c2cc(C(=O)NCc3ccc(C)nc3)cc(-c3ccncc3)c2)nc1` [Compound 19, 3-(5-Methyl-pyridin-2-yl)-N-(6-methyl-pyridin-3-ylmethyl)-5-pyridin-4-yl-benzamide], for which the results for the 50% inhibitory concentration (IC50) at hP2X2/3H and on hP2X3 were 238 nM and 61.4 nM, respectively.
For the compound `Cc1ccc(-c2cc(C(=O)N[C@@H](C)CO)cc(-c3c(C)cccc3C#N)c2)nc1` [Compound 72, 6′-Cyano-2′-methyl-5-(5-methyl-pyridin-2-yl)-biphenyl-3-carboxylic acid ((S)-2-hydroxy-1-methyl-ethyl)-amide], the 50% inhibitory concentration (IC50) at hP2X3 stood at 59.4 nM.
On the same count and under the same terms, with `Cc1ccc(-c2cc(C(=O)N[C@@H](C)CO)cc(-c3ccc(C#N)cc3C)c2)nc1` [Compound 76, 4′-Cyano-2′-methyl-5-(5-methyl-pyridin-2-yl)-biphenyl-3-carboxylic acid ((S)-2-hydroxy-1-methyl-ethyl)-amide] the figure was 77.7 nM; with `Cc1ccc(-c2cc(C(=O)NCc3ccc(C)nc3)cc(-c3ccc(C#N)cc3)c2)cc1` [Compound 24, 4″-Cyano-4-methyl-[1,1′;3′,1″]terphenyl-5′-carboxylic acid (6-methyl-pyridin-3-ylmethyl)-amide], 626 nM; with `Cc1ccc(-c2cc(C(=O)N[C@@H](C)CO)cc(-c3ccccc3CO)c2)nc1` [Compound 82, 2′-Hydroxymethyl-5-(5-methyl-pyridin-2-yl)-biphenyl-3-carboxylic acid ((S)-2-hydroxy-1-methyl-ethyl)-amide], 33.2 nM.
`Cc1ccc(-c2cc(C(=O)N[C@@H](C)CO)cc(-c3ccccc3CO)c2)c(C#N)c1` [Compound 88, 2-Cyano-2″-hydroxymethyl-4-methyl-[1,1′;3′,1″]terphenyl-5′-carboxylic acid ((S)-2-hydroxy-1-methyl-ethyl)-amide]: the IC50 on hP2X3 turned out to be 7.1 nM.
